SMILES strings stand for the structures. Activity calls are given as the source filed them. How the calls were made is not given here.

This experiment has as its system StAR promoter luciferase reporter cells, luminescence counterscreen. The experiment can be described thus: StAR promoter reporter inhibition counter-screen, dose response, counter-screen for LRH-1 inverse agonist project, cell-based, luminescence, luciferase reporter (AID 651969).

Turning to `COc1ccc(NC(=O)COC(=O)c2cc(S(=O)(=O)N3CCCC3)ccc2O)cc1`, the IC50 was > 35.9 µM (inactive).

The record behind these values is PubChem BioAssay AID651969 (The Scripps Research Institute Molecular Screening Center, 2013).
